Converted amounts (≈) assume the structure as drawn.
Experiments:
[1] = system: pro-inflammatory cytokines/chemokines in subcutaneous abscesses; assay: Pro-inflammatory cytokines and chemokines in subcutaneous abscesses (multiplex ELISA); format: in vivo, female outbred CD-1 mice; details: single IM 50 mg/kg at 6 h post-challenge, n = 5
Experimental: At 3 h and 18 h post-treatment (Section 2.4: single IM treatment), mice were euthanized (n = 5 per cohort per time point), then abscess and skin biopsies were collected (Section 2.5), suspended in PBS [2 mL], and homogenized in C tubes (Miltenyi Biotec 130-093-237) using a gentleMACS Dissociator (Miltenyi Biotec 130-093-235, program B). Tissue homogenates were stored at −20 °C until analysis. Homogenized abscess tissues were then analyzed using a V-PLEX Pro-inflammatory Panel 1 Mouse Kit (Meso Scale Diagnostics K15048D-1) on a MESO QuickPlex SQ 120MM (MESO, Rockville, MD, USA) to measure the inflammatory markers of the abscesses.

CA-MRSA USA300 = details: cited from earlier work
Description: Consistent with protection, SQ treatment with CPDI-02 increased local levels of IL-1β, IL-6, and CXCL1 and NP recruitment to the abscess. In contrast, SQ treatment of C5aR1 knockout mice with CDPI-02 had no effect against SQ infection with CA-MRSA up to ...

physchem = details: aqueous buffer
[2] = system: neutrophils (Ly6G/Ly6C+) and mononuclear phagocytes (F4/80+) in subcutaneous abscesses; assay: Proportions of neutrophils and mononuclear phagocytes in subcutaneous abscesses (quantitative IHC); format: in vivo, female outbred CD-1 mice; details: single IM 50 mg/kg at 6 h post-challenge; 18 h post-treatment; n = 3 mice
[3] = system: primary human mononuclear phagocytes (MPs); details: cited from earlier work
Description: (§1) Complement Peptide-Derived Immunostimulant-02 (CPDI-02) (formerly EP67) is a novel, second-generation host-derived decapeptide agonist of […] (C5) Receptor 1 (C5aR1/C5a1R/CD88), which is based on the C-terminal pharmacophore of human Complement Peptide C5a (hC5a).

[4] = system: primary human neutrophils (NPs); details: cited from earlier work
Description: as §1

CA-MRSA USA300 LAC = assay: Curative treatment of female CD-1 mice infected SQ with CA-MRSA: abscess surface area by image analysis; format: in vivo, Staphylococcus aureus; details: for effect on maximum abscess surface area or time to resolution vs vehicle alone: 6 treatments
Experimental: CA-MRSA USA300 LAC (Staphylococcus aureus Rosenbach, ATCC BAA-1756) was stored in 50% glycerol at −80 °C until use. To start a culture, a Tryptic Soy Agar (TSA; Remel) plate was streaked and incubated overnight at 37 °C. A single colony from the streaked agar plate was transferred to a 50 mL conical tube containing 30 mL of Tryptic Soy Broth (TSB; Remel) and incubated [37 °C] overnight while shaking [200 rpm]. The overnight culture was diluted [1:10] in TSB, incubated at 37 °C for ~2 h until A600 = 0.5 to 0.55, and pelleted [3000 g, 10 min] at 4 °C. The pellet was resuspended in PBS and pelleted as before and then resuspended in 0.05% (w/v) Cytodex-1 in sterile PBS (typical yield ~5 × 10^8 CFU/mL). MRSA concentration was confirmed by serial dilution in sterile PBS, dot plating on TSA plates, and incubation at 37 °C for 24 h before counting.
All procedures were approved by the University of Nebraska Medical Center Institutional Animal Care and Use Committee. Female outbred CD-1 mice (Charles Rivers, Strain Code 022, 4-6 weeks old) were acclimated in the animal facility for at least one week, and their rear flanks were shaved 24 h before the study. Mice were anesthetized with isoflurane and 0.100 mL of CA-MRSA stock solution (Section 2.3) was injected SQ (5 × 10^7 CFU total) from the left rear flank into the dorsal side. […] For IM (left caudal muscle) and SQ (left flank) administration, CPDI-02 was administered in 0.050 mL of sterile PBS [20 mg/mL] (volume adjusted to 50 mg/kg dose). For topical administration (TOP), CPDI-02 was applied to abscesses in 0.100 mL of ointment (3% w/v) (Section 2.2) using a positive displacement pipette [150 mg/kg dose]. For IV administration (tail vein), CPDI-02 was administered in 0.050 mL sterile PBS [5 mg/mL] (volume adjusted to 12.5 mg/kg dose). […] Mouse abscesses were imaged with reference scales daily over 10 days starting at 24 h post-challenge. Abscess surface areas were determined by image analysis (ImageJ®, ver.1.54h) and compared between vehicle and treatment group for each administration route over ten days post-challenge by repeated measurement with two-way ANOVA with Geisser–Greenhouse correction.

CSCC[C@H](NC(=O)[C@H](CC(=O)O)NC(=O)[C@H](CCCCN)NC(=O)[C@H](Cc1ccccc1)NC(=O)[C@H](CO)NC(=O)[C@@H](N)Cc1ccc(O)cc1)C(=O)N1CCC[C@H]1C(=O)N(C)[C@@H](CC(C)C)C(=O)N[C@H](C)C(=O)N[C@@H](CCCNC(=N)N)C(=O)O [CPDI-02]
levels of IFN-γ, IL-2, IL-4, IL-5, IL-6, IL-10, IL-12p70, CXCL-1 [KC/GRO], TNF-α in subcutaneous abscesses ([1]; 3 h and 18 h post-treatment): no effect | levels of IL-1β in subcutaneous abscesses vs vehicle alone ([1]; 3 h post-treatment): decreased | effect against SQ infection with CA-MRSA vs inactive scCPDI-02 (CA-MRSA USA300; C5aR1 knockout mice, SQ treatment, up to 48 h post-challenge): no effect | local levels of IL-1β, IL-6 and CXCL1 and NP recruitment to the abscess (CA-MRSA USA300; outbred mice, prophylactic SQ treatment): increased | maximum abscess surface area, CA-MRSA load per gram of tissue and time to abscess resolution vs inactive scCPDI-02 (CA-MRSA USA300; outbred mice, repeat SQ treatment before and after SQ challenge, three injections total, 12.5 mg/kg): significantly decreased | solubility (physchem): ~100 mg/mL (≈ 80.5 mM) | increase of ratio of MPs (F4/80+) to total cells (DAPI+) vs vehicle alone [2]: 4 fold | increase of ratio of mononuclear phagocytes to neutrophils (Ly6G/Ly6C+) vs vehicle alone [2]: 7 fold | ratio of NPs (Ly6G/Ly6C+) to total cells (DAPI+) in subcutaneous abscesses vs vehicle alone [2]: similar | potency for activating MPs over NPs ([3]; primary human MPs vs primary human NPs): 10^3 fold | EC50 ([3]; primary human MPs): 0.167 µM | EC50 [4]: 160 µM | effect of repeat treatment starting at 24 h post-challenge (CA-MRSA USA300 LAC; regardless of administration route): no effect | maximum abscess surface area (Day 1 post-challenge) (CA-MRSA USA300 LAC; repeat IM 50 mg/kg starting 6 h post-challenge, mean ± SEM, n = 10, vehicle 74 ± 11, p = 0.0052, SEM): 31 ± 8 mm^2 | effect on maximum abscess surface area or time to resolution vs vehicle alone (CA-MRSA USA300 LAC; repeat IV (tail vein) 12.5 mg/kg starting 6 h post-challenge): no effect | effect on maximum abscess surface area or time to resolution vs vehicle alone (CA-MRSA USA300 LAC; repeat SQ (left flank) 50 mg/kg starting 6 h post-challenge): no effect | effect on maximum abscess surface area or time to resolution vs vehicle alone (CA-MRSA USA300 LAC; repeat topical (TOP), 0.100 mL of 3% w/v ointment on abscess, 150 mg/kg, starting 6 h post-challenge): no effect | time to resolution vs vehicle alone (CA-MRSA USA300 LAC; single IM 50 mg/kg at 6 h post-challenge, similar extent as repeated IM treatment): decreased

— PMC11677424, “Early-Stage IM Treatment with the Host-Derived Immunostimulant CPDI-02 Increases Curative Protection of Healthy Outbred Mice Against Subcutaneous Infection with Community-Acquired Methicillin-Resistant Staphylococcus aureus USA300” (Pharmaceutics, 2024)
